Data: patent publication US20250332178A1, “METHODS OF TREATING MYCOBACTERIAL INFECTIONS USING TETRACYCLINE COMPOUNDS” (priority 2018, published 2025)
In brackets after ≈: the same amount, converted by molar mass. Read-outs that look alike come from different tables or passages of the source.

How the values were obtained:
M. smegmatis group = test: MIC (CLSI broth dilution), RGM isolates; assay type: cell-based; conditions: Mycolicibacterium smegmatis, read-out: MIC
[1] = test system: rapid-growing mycobacteria (RGM) isolates; test: MIC (CLSI broth dilution), all RGM isolates; assay type: cell-based, nontuberculous mycobacteria; conditions: all 50 RGM isolates
M. abscessus complex = test: MIC (CLSI broth dilution), RGM isolates; assay type: cell-based; conditions: Mycobacteroides abscessus, read-out: MIC
M. intracellulare = test: MIC (CLSI broth dilution), slow-growing NTM isolates; assay type: cell-based; conditions: Mycobacterium intracellulare, read-out: MIC
M. chelonae = test: MIC (CLSI broth dilution), RGM isolates; assay type: cell-based; conditions: Mycobacteroides chelonae, read-out: MIC
[2] = test system: slow-growing NTM isolates; test: MIC (CLSI broth dilution), all slow-growing NTM isolates; assay type: cell-based, nontuberculous mycobacteria; conditions: all slow-growing NTM isolates
M. simiae = test: MIC (CLSI broth dilution), slow-growing NTM isolates; assay type: cell-based; conditions: read-out: MIC
M. arupense = test: as above; assay type: cell-based; conditions: isolate 11, Other; read-out: MIC
M. mucogenium group = test: MIC (CLSI broth dilution), RGM isolates; assay type: cell-based; conditions: read-out: MIC
M. avium = test: MIC (CLSI broth dilution), slow-growing NTM isolates; assay type: cell-based; conditions: Mycobacterium avium, read-out: MIC
M. fortuitum group = test: MIC (CLSI broth dilution), RGM isolates; assay type: cell-based; conditions: Mycolicibacterium fortuitum, read-out: MIC
M. immunogenum group = test: MIC (CLSI broth dilution), RGM isolates; assay type: cell-based; conditions: M. immunogenum, read-out: MIC
M. chimaera = test: MIC (CLSI broth dilution), slow-growing NTM isolates; assay type: cell-based; conditions: read-out: MIC

CN(C)c1cc(CNCC(C)(C)C)c(O)c2c1C[C@H]1C[C@H]3[C@H](N(C)C)C(O)=C(C(N)=O)C(=O)[C@@]3(O)C(O)=C1C2=O [OMC]
MIC (M. smegmatis group; isolate 49, M. smegmatis group, M. goodii): 0.06 µg/mL (≈ 0.108 µM) | MIC (M. smegmatis group; isolate 50, M. smegmatis group, M. wolinskyi): 0.5 µg/mL (≈ 0.898 µM) | MIC50 ([1]; read-out: MIC50): 0.25 µg/mL (≈ 0.449 µM) | MIC90 ([1]; read-out: MIC90): 0.5 µg/mL (≈ 0.898 µM) | MIC (M. abscessus complex; isolate 1, M. abscessus complex, erm gene type MAB30): 0.25 µg/mL (≈ 0.449 µM) | MIC (M. abscessus complex; isolate 2, M. abscessus complex, erm gene type MAB30): 0.25 µg/mL (≈ 0.449 µM) | MIC (M. abscessus complex; isolate 3, M. abscessus complex, erm gene type MAB30): 0.25 µg/mL (≈ 0.449 µM) | MIC (M. abscessus complex; isolate 4, M. abscessus complex, erm gene type massiliense): 0.12 µg/mL (≈ 0.216 µM) | MIC (M. abscessus complex; isolate 5, M. abscessus complex, erm gene type massiliense/subsp. abs hybrid): 0.25 µg/mL (≈ 0.449 µM) | MIC (M. abscessus complex; isolate 6, M. abscessus complex, erm gene type Type 1 abscessus): 0.12 µg/mL (≈ 0.216 µM) | MIC (M. abscessus complex; isolate 7, M. abscessus complex, erm gene type Type 1 abscessus): 0.12 µg/mL (≈ 0.216 µM) | MIC (M. abscessus complex; isolate 8, M. abscessus complex, erm gene type Type 1 abscessus): 0.12 µg/mL (≈ 0.216 µM) | MIC (M. abscessus complex; isolate 9, M. abscessus complex, erm gene type Type 1 abscessus): 0.12 µg/mL (≈ 0.216 µM) | MIC (M. abscessus complex; isolate 10, M. abscessus complex, erm gene type Type 1 abscessus): 0.12 µg/mL (≈ 0.216 µM) | MIC (M. abscessus complex; isolate 11, M. abscessus complex, erm gene type Type 6 abscessus): 0.12 µg/mL (≈ 0.216 µM) | MIC (M. abscessus complex; isolate 12, M. abscessus complex, erm gene type Type 6 abscessus): 0.12 µg/mL (≈ 0.216 µM) | MIC (M. abscessus complex; isolate 13, M. abscessus complex, erm gene type Type 6 abscessus): 0.25 µg/mL (≈ 0.449 µM) | MIC (M. abscessus complex; isolate 14, M. abscessus complex, erm gene type Type 6 abscessus): 0.12 µg/mL (≈ 0.216 µM) | MIC (M. abscessus complex; isolate 15, M. abscessus complex, erm gene type Type 7 abscessus): 0.12 µg/mL (≈ 0.216 µM) | MIC (M. abscessus complex; isolate 16, M. abscessus complex, erm gene type Type 7 abscessus): 0.25 µg/mL (≈ 0.449 µM) | MIC (M. abscessus complex; isolate 17, M. abscessus complex, erm gene type Type 8 abscessus): 0.06 µg/mL (≈ 0.108 µM) | MIC (M. intracellulare; isolate 6, MAC): > 16 µg/mL | MIC (M. intracellulare; isolate 7, MAC): > 16 µg/mL | MIC (M. intracellulare; isolate 8, MAC): > 16 µg/mL | MIC (M. intracellulare; isolate 9, MAC): > 16 µg/mL | MIC (M. intracellulare; isolate 10, MAC): > 16 µg/mL | MIC (M. chelonae; isolate 18, M. chelonae): 0.12 µg/mL (≈ 0.216 µM) | MIC (M. chelonae; isolate 19, M. chelonae): 0.25 µg/mL (≈ 0.449 µM) | MIC (M. chelonae; isolate 20, M. chelonae): 0.12 µg/mL (≈ 0.216 µM) | MIC (M. chelonae; isolate 21, M. chelonae): 0.12 µg/mL (≈ 0.216 µM) | MIC (M. chelonae; isolate 22, M. chelonae): 0.25 µg/mL (≈ 0.449 µM) | MIC50 ([2]; read-out: MIC50): > 16 µg/mL | MIC90 ([2]; read-out: MIC90): > 16 µg/mL | MIC (M. simiae; isolate 13, Other): > 16 µg/mL | MIC (M. simiae; isolate 14, Other): > 16 µg/mL | MIC (M. simiae; isolate 15, Other): > 16 µg/mL | MIC (M. arupense): > 16 µg/mL | MIC (M. mucogenium group; isolate 39, M. mucogenicum group, M. mucogenicum): 0.25 µg/mL (≈ 0.449 µM) | MIC (M. mucogenium group; isolate 40, M. mucogenicum group, M. mucogenicum): 0.25 µg/mL (≈ 0.449 µM) | MIC (M. mucogenium group; isolate 41, M. mucogenicum group, M. mucogenicum): 1 µg/mL (≈ 1.8 µM) | MIC (M. mucogenium group; isolate 42, M. mucogenicum group, M. mucogenicum): 0.5 µg/mL (≈ 0.898 µM) | MIC (M. mucogenium group; isolate 43, M. mucogenicum group, M. phocaicum): 1 µg/mL (≈ 1.8 µM) | MIC (M. mucogenium group; isolate 44, M. mucogenicum group, M. phocaicum): 0.5 µg/mL (≈ 0.898 µM) | MIC (M. mucogenium group; isolate 45, M. mucogenicum group, M. phocaicum): 0.5 µg/mL (≈ 0.898 µM) | MIC (M. mucogenium group; isolate 46, M. mucogenicum group, M. phocaicum): 1 µg/mL (≈ 1.8 µM) | MIC (M. mucogenium group; isolate 47, M. mucogenicum group, M. phocaicum): 1 µg/mL (≈ 1.8 µM) | MIC (M. mucogenium group; isolate 48, M. mucogenicum group, M. phocaicum): 0.25 µg/mL (≈ 0.449 µM) | MIC (M. avium; isolate 1, MAC): > 16 µg/mL | MIC (M. avium; isolate 2, MAC): > 16 µg/mL | MIC (M. avium; isolate 3, MAC): > 16 µg/mL | MIC (M. fortuitum group; isolate 23, M. fortuitum group, M. fortuitum): 0.12 µg/mL (≈ 0.216 µM) | MIC (M. fortuitum group; isolate 24, M. fortuitum group, M. fortuitum): 0.12 µg/mL (≈ 0.216 µM) | MIC (M. fortuitum group; isolate 25, M. fortuitum group, M. fortuitum): 0.12 µg/mL (≈ 0.216 µM) | MIC (M. fortuitum group; isolate 26, M. fortuitum group, M. porcinum): 0.06 µg/mL (≈ 0.108 µM) | MIC (M. fortuitum group; isolate 27, M. fortuitum group, M. porcinum): 0.12 µg/mL (≈ 0.216 µM) | MIC (M. fortuitum group; isolate 28, M. fortuitum group, M. porcinum/M. boenickei): 0.25 µg/mL (≈ 0.449 µM) | MIC (M. fortuitum group; isolate 29, M. fortuitum group, M. porcinum/M. boenickei): 0.25 µg/mL (≈ 0.449 µM) | MIC (M. fortuitum group; isolate 30, M. fortuitum group, M. porcinum/M. boenickei): 0.12 µg/mL (≈ 0.216 µM) | MIC (M. fortuitum group; isolate 31, M. fortuitum group, M. senegalense): 0.25 µg/mL (≈ 0.449 µM) | MIC (M. fortuitum group; isolate 32, M. fortuitum group, M. senegalense): 0.12 µg/mL (≈ 0.216 µM) | MIC (M. fortuitum group; isolate 33, M. fortuitum group, M. senegalense): 0.12 µg/mL (≈ 0.216 µM) | MIC (M. fortuitum group; isolate 34, M. fortuitum group, M. senegalense): 0.12 µg/mL (≈ 0.216 µM) | MIC (M. immunogenum group; isolate 35, M. immunogenum group): 0.5 µg/mL (≈ 0.898 µM) | MIC (M. immunogenum group; isolate 36, M. immunogenum group): 0.25 µg/mL (≈ 0.449 µM) | MIC (M. immunogenum group; isolate 37, M. immunogenum group): 0.5 µg/mL (≈ 0.898 µM) | MIC (M. immunogenum group; isolate 38, M. immunogenum group): 0.5 µg/mL (≈ 0.898 µM) | MIC (M. chimaera; isolate 4, MAC): > 16 µg/mL | MIC (M. chimaera; isolate 5, MAC): > 16 µg/mL
